This note sets out measurements from US8865756B2, “Inhibitors of HCV NS5A” (Presidio Pharmaceuticals, Inc., priority 2008, dated 2014).

SMILES strings stand for the structures. Bounds are passed on as bounds.

This experiment has as its system HCV 1b_Huh-Luc/Neo-ET cell line persistently expressing a bicistronic genotype 1b replicon in Huh 7 cells. Nature of the experiment: HCV replicon assay (luciferase readout). Type of experiment: cell-based. The conditions noted are these: Hepatitis C virus, Huh-7, 72 h, read-out: Inhibition of HCV genotype 1b. The method, then:
Biological activity of the compounds of the invention was determined using an HCV replicon assay. The HCV 1b_Huh-Luc/Neo-ET cell line persistently expressing a bicistronic genotype 1b replicon in Huh 7 cells was obtained from ReBLikon GMBH. This cell line was used to test compound inhibition using luciferase enzyme activity readout as a measurement of compound inhibition of replicon levels.
On Day 1 (the day after plating), each compound is added in triplicate to the cells. Plates incubated for 72 h prior to running the luciferase assay. Enzyme activity was measured using a Bright-Glo Kit (cat. number E2620) manufactured by Promega Corporation. The following equation was used to generate a percent control value for each compound. % Control=(Average Compound Value/Average Control)*100
The EC50 value was determined using GraphPad Prism and the following equation: Y=Bottom+(Top−Bottom)/(1+10^((Log IC50−X)*HillSlope))
EC50 values of compounds are determined several times in the replicon assay.
Example compounds of the disclosed invention are illustrated in Tables 1-14 attached as appendices. The tables show inhibitory activity of many of the example compounds with respect to HCV 1b. […] The tables further provide mass spectrometry results for the synthesized example compounds.

For `COC(=O)N[C@@H](C(=O)N[C@@H](C)c1ncc(-c2ccc(C#Cc3ccc(-c4cnc([C@H](C)NC(=O)[C@H](NC(=O)OC)C(C)C)[nH]4)cc3)cc2)[nH]1)C(C)C` [Compound 950], the EC50 was under 1 nM.
Consider `COC(=O)N[C@H](C(=O)N1CCC[C@H]1c1ncc(-c2ccc(C#Cc3ccc4c(c3)CCCc3nc([C@@H]5CCCN5C(=O)[C@@H](NC(=O)OC)C(C)C)[nH]c3-4)cc2)[nH]1)C(C)C` [Compound 1096], for which the EC50 was under 1 nM.
In the case of `COC(=O)N[C@H](C(=O)N1CCC[C@H]1c1nc2ccc(C#Cc3ccc(-c4ccc5nc([C@@H]6CCCN6C(=O)[C@@H](NC(=O)OC)C(C)C)[nH]c5c4)nc3)cc2[nH]1)C(C)C` [Compound 1083], the EC50 is under 1 nM.
Regarding `CCN(CC)[C@@H](C(=O)N1CCC[C@H]1c1ncc(C#Cc2ccc(C#Cc3cnc([C@@H]4CCCN4C(=O)[C@H](NC(=O)OC)c4ccccc4)[nH]3)cc2)[nH]1)c1ccccc1` [Compound 315], the EC50 was under 1 nM.
`COC(=O)N[C@H](CC(=O)N1CCC[C@H]1c1ncc(-c2ccc(C#Cc3ccc4nc([C@@H]5CCCN5C(=O)C[C@@H](NC(=O)OC)C(C)C)[nH]c4c3)cc2)[nH]1)C(C)C` [Compound 1065]: the EC50 is 10 to 999 nM.
For `O=C([C@@H](c1ccccc1)N1CCOCC1)N1CCC[C@H]1c1ncc(-c2ccc(C#Cc3ccc(-c4cnc([C@@H]5CCCN5C(=O)[C@@H](c5ccccc5)N5CCOCC5)[nH]4)cc3)cc2)[nH]1` [Compound 184], the EC50 is under 1 nM.
As to `CC(C)(C)OC(=O)N[C@@H](C(=O)N1CCC[C@H]1c1ncc(-c2ccc(C#Cc3ccc(-c4nnc([C@@H]5CCCN5C(=O)[C@H](NC(=O)OC(C)(C)C)c5ccccc5)[nH]4)cc3)cc2)[nH]1)c1ccccc1` [Compound 246], the EC50 was under 1 nM.
For `COC(=O)N[C@H](C(=O)N1CCC[C@H]1c1ncc(-c2ccc(C#Cc3ccc4nc([C@@H]5CCCN5C(=O)[C@@H](NC(=O)OC)C(C)(C)C)[nH]c4c3)cc2)[nH]1)C(C)(C)C` [Compound 1041], the EC50 was under 1 nM.
Take `CC(C)[C@H](NC(=O)[C@H](NC(=O)OC(C)(C)C)c1ccccc1)c1ncc(-c2ccc(C#Cc3ccc(-c4cnc([C@@H]5CCCN5C(=O)[C@H](NC(=O)OC(C)(C)C)c5ccccc5)[nH]4)cc3)cc2)[nH]1` [Compound 281]: the EC50 lay within 1 to 9.9 nM.
Turning to `COC(=O)N[C@@H](C(=O)N1CCC[C@H]1c1ncc(-c2ccc(C#Cc3ccc(-c4cnc([C@@H]5CCCN5C(=O)[C@H](OC)c5ccccc5)[nH]4)cc3)cc2)[nH]1)c1ccccc1` [Compound 179], the EC50 was under 1 nM.
Regarding `COC(=O)N[C@@H](C(=O)N1CCC[C@H]1c1ncc(-c2ccc(C#Cc3ccc(-c4cnc([C@@H]5CCCN5C(=O)[C@H](NC(=O)N5CCC[C@H]5CO)c5ccccc5)[nH]4)cc3)cc2)[nH]1)c1ccccc1` [Compound 255], the EC50 was under 1 nM.
With `O=S(=O)(c1ccccc1)N1CCC[C@H]1c1ncc(-c2ccc(C#Cc3ccc4nc([C@@H]5CCCN5S(=O)(=O)c5ccccc5)[nH]c4c3)cc2)[nH]1` [Compound 1038], the EC50 is over 1000 nM.
Regarding `O=C([C@H](O)c1ccccc1)N1CCC[C@H]1c1ncc(C#Cc2ccc(-c3cnc([C@@H]4CCCN4C(=O)[C@H](O)c4ccccc4)[nH]3)cc2)[nH]1` [Compound 112], the EC50 is under 1 nM.
For the compound `COC(=O)N[C@@H](C(=O)N1CCC[C@H]1c1ncc(-c2ccc(C#Cc3ccc(C(=O)NC[C@@H]4CCCN4C(=O)[C@H](NC(=O)N4CCOCC4)c4ccccc4)cc3)cc2)[nH]1)c1ccccc1` [Compound 235], the EC50 is under 1 nM.
As for `O=C(N[C@@H](C(=O)N1CCC[C@H]1c1nc(-c2ccc3cc(C#Cc4cnc([C@@H]5CCCN5C(=O)[C@H](NC(=O)N5CC[C@H](O)C5)c5ccccc5)[nH]4)ccc3c2)c[nH]1)c1ccccc1)N1CC[C@H](O)C1` [Compound 806], the EC50 fell in the range of 1 to 9.9 nM.
`COC(=O)N[C@@H](C)C(=O)N1CCC[C@H]1c1ncc(-c2ccc(C#Cc3ccc(-c4cnc([C@@H]5CCCN5C(=O)[C@H](NC(=O)OC)c5ccccc5)[nH]4)cc3)cc2)[nH]1` [Compound 1004]: the EC50 is under 1 nM.
